Assay results taken from US20250122202A1, “EGFR INHIBITOR, PREPARATION METHOD THEREFOR AND USE THEREOF” (SHANDONG NEW TIME PHARMACEUTICAL CO., LTD., priority 2021, published 2025).
Read-outs that look alike come from different tables or passages of the source.

Tests used:
[1] = biological target: EGFR D770-N771 ins NPG kinase (Homo sapiens (Human), UniProt P00533, INS770NPG); assay: In-vitro enzyme experiment 1 (HTRF kinase assay), D770-N771 ins NPG kinase; type: biochemical
[2] = system: KC-1362 BaF3-EGFR D770-N771 ins NPG cells; assay: Anti-proliferative activity on KC-1362 BaF3-EGFR D770-N771 ins NPG cells; type: cell-based; settings: Ba/F3 EGFR
[3] = system: KC-1474:PC-9 EGFR-Del19/T790M/C797S; assay: Cell proliferation inhibition experiment (CCK-8), KC-1474; type: cell-based; settings: Homo sapiens, 72 h
Description: (§1) Inhibition rate %=[(A0−AS)/(A0−AC)]×100%.

[4] = system: KC-0178:NCI-1975 EGFR-L858R/T790M/C797S; assay: Cell proliferation inhibition experiment (CCK-8), KC-0178; type: cell-based; settings: Homo sapiens, 72 h
Description: as §1

[5] = system: HCC827 EGFR-Del19; assay: Cell proliferation inhibition experiment (CCK-8), HCC827; type: cell-based; settings: Homo sapiens, 72 h
Description: as §1

[6] = system: PC-9 EGFR-Del19; assay: Cell proliferation inhibition experiment (CCK-8), PC-9; type: cell-based; settings: Homo sapiens, 72 h
Description: as §1

[7] = system: H1975 EGFR-L858R/T790M; assay: Cell proliferation inhibition experiment (CCK-8), H1975; type: cell-based; settings: Homo sapiens, NCI-H1975, 72 h
Description: as §1

[8] = system: A549 EGFR-WT; assay: Cell proliferation inhibition experiment (CCK-8), A549; settings: Homo sapiens, A549, 72 h, read-out: cell proliferation inhibition IC50 (μM) A549, 72 h, CCK-8
[9] = biological target: EGFR (D770-N771 ins NPG T790M) kinase (Homo sapiens (Human), UniProt P00533, INS770NPG/T790M); assay: In-vitro enzyme experiment 1 (HTRF kinase assay), EGFR D770-N771 ins NPG T790M; type: biochemical
Method: (§2) The specific experiment was as follows: • 1. Preparation of 1× concentration kinase buffer • 1 volume of 5 times concentration of an enzyme buffer diluted with 4 volumes of distilled water; 5 mM magnesium chloride; 1 mM DTT; and 1 mM MnCl2. • 2. Test method of activity of compound • a) a compound diluent was transferred to each well of an assay plate (784075, Greiner) using Echo 550; • b) the assay plate was sealed and centrifuged at 1,000 g for 1 min; • c) 2×EGFR (D770-N771 ins NPG T790M) was prepared in a 1× kinase buffer; • d) 5 μl of the 2×EGFR (D770-N771 ins NPG T790M) was added to a 384-well assay plate (784075, Greiner); • e) the assay plate was centrifuged at 1,000 g for 30 s and incubated at room temperature for 10 min; • f) 2× TK-substrate-biotin (2 μM) and ATP were added to the 1× kinase buffer and mixed; • g) the reaction was started after adding 5 μl of the TK-substrate-biotin (2 μM) and ATP mixture; • h) the assay plate was centrifuged at 1,000 g for 30 s; and the assay plate was sealed and incubated at room temperature for 40 min; • i) 4× Sa-XL 665 was prepared in an HTRF detection buffer; • j) 5 μl of the Sa-XL 665 and 5 μl of a TK-antibody-cryptate were added to each well of the assay plate; • k) the assay plate was centrifuged at 1,000 g for 30 s and incubated at room temperature for 1 h; and • l) fluorescence signals at 615 nm (cryptate) and 665 nm (XL665) were read on an Envision 2104 reader. • 3. Data analysis • 3.1 Calculation of ratio (665/615 nm) of each well • 3.2 Calculation of inhibition rate
(§3) [formula] • 3.3 Calculation of IC50 value of compound and drawing dose-effect curve of compound • IC50 values were calculated using GraphPad 6.0 by applying a non-linear regression curve (dose-effect relationship-variable slope) of the logarithm of the compound concentration versus the inhibition rate.
Y=lowest value+(highest value−lowest value)/(1+10^((Log IC50−X)×slope)) • X: logarithm of inhibitor concentration; and Y: inhibition rate. • 3.4 Double test report • 3.4.1 After one tester completed a report, another tester again checked the report to ensure that data analysis was correct. • 3.4.2 The data was exported from the software and manually analyzed. • 3.4.2.1 The rate was converted into the inhibition rate. All the IC50 values were first calculated with the inhibition rate using Prism GraphPad 6.0. • 3.4.2.2 Then the IC50 value was recalculated using the ratio to check the accuracy of the analysis. • 3.4.3 The number of all the compounds was ensured to be correct.

[10] = biological target: EGFR-Del19/T790M/C797S kinase (Homo sapiens, UniProt P00533, C797S/T790M, form not given); assay: In-vitro enzyme experiment 2 (HTRF kinase assay), EGFR Del19 T790M C797S; type: biochemical; settings: read-out: enzyme inhibition IC50 (nM) EGFR-Del19/T790M/C797S
Method: as §2, with “Preparation of 1× concentration kinase buffer • 1 volume of 5 times concentration of an enzyme buffer diluted with 4 volumes of distilled water; 5 mM magnesium chloride; 1 mM DTT; and 1 mM MnCl2. • 2.” left out
as §3
The preparation of the kinase buffer, the test method of the activity of the compound, and the data analysis referred to the relevant definitions in example 117, wherein step c) of the test method of the activity of the compound was replaced by preparing 2×EGFR Del19 T790M C797S in the 1× kinase buffer.

EGFR (D770-N771 ins NPG T790M) kinase, sequence (P00533 other isoform, or with tags, fused parts or gaps T790M/del 1-668/ins NPG behind 770 limits assumed): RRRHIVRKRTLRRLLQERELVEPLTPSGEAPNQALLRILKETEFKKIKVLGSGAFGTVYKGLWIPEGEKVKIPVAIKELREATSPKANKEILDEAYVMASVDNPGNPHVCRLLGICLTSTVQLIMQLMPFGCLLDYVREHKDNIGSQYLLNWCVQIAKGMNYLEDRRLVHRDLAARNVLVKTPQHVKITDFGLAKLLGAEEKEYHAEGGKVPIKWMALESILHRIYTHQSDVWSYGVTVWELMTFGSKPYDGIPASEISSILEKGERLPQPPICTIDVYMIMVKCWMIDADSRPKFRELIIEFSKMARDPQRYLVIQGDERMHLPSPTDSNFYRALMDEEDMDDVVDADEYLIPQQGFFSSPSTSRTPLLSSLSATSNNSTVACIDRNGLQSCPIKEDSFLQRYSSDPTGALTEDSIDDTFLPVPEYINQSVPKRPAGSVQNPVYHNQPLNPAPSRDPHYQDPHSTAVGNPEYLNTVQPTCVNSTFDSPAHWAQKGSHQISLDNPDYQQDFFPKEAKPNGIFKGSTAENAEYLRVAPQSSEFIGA
EGFR-Del19/T790M/C797S kinase, sequence (P00533 25-1210 T790M/C797S limits assumed, form open): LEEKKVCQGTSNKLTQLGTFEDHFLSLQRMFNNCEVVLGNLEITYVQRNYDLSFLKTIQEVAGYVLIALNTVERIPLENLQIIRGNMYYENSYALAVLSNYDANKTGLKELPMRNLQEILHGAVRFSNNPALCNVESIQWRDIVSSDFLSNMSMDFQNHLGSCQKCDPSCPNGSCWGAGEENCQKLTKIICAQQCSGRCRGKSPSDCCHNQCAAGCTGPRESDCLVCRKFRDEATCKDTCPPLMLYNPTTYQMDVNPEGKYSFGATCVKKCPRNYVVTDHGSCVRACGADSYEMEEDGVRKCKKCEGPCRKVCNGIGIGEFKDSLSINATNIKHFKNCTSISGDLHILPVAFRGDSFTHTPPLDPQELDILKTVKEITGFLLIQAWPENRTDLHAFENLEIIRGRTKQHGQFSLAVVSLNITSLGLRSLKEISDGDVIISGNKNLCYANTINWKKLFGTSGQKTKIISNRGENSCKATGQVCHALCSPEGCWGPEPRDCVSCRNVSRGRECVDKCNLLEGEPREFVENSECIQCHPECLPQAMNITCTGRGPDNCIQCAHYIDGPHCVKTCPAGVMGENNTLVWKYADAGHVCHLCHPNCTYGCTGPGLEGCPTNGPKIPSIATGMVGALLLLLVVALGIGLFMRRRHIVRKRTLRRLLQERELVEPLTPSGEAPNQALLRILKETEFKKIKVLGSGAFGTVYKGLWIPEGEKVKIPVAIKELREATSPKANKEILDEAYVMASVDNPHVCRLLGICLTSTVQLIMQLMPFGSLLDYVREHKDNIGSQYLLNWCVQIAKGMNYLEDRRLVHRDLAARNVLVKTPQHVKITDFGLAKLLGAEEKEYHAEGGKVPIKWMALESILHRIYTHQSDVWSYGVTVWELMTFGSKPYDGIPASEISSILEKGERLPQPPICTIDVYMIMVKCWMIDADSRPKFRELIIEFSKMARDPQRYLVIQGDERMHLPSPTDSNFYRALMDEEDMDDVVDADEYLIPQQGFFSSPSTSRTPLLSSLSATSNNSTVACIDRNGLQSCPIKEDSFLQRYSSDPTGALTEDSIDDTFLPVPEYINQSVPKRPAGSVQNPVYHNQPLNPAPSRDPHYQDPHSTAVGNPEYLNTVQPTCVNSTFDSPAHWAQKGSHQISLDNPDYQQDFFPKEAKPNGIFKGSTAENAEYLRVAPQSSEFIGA
EGFR D770-N771 ins NPG kinase, sequence (P00533 other isoform, or with tags, fused parts or gaps del 1-668/ins NPG behind 770 limits assumed): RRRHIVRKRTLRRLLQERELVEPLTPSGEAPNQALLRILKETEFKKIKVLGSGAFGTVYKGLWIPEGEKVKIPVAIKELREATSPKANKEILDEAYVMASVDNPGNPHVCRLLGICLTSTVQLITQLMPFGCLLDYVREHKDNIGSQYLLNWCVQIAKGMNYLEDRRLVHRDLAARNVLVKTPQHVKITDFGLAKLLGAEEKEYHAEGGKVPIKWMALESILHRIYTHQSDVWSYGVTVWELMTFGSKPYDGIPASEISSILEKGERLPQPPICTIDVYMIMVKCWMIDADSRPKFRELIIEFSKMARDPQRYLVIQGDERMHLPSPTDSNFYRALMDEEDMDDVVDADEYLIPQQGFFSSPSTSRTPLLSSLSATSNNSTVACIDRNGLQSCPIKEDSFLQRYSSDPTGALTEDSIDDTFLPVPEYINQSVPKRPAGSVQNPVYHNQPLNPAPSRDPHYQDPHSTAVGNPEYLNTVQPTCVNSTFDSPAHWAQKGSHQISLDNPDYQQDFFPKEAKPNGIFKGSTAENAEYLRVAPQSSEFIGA

Row | SMILES | IC50 [1] | IC50 [2] | IC50 [3] | IC50 [5] | IC50 [6] | IC50 [7] | IC50 [8] | IC50 [9] | IC50 [10] | IC50 ([8]; Table 5 numeric) | IC50 [4]
1 | CN1CCN(c2ccc(Nc3nc(NC45CC6CC(C4)C(O)C(C6)C5)c4c(C(=O)c5ccc(F)cc5)c[nH]c4n3)cc2)CC1 (centres unmarked) [Example 71] | 0.00454 µM | 0.07 µM |  |  |  |  |  | 0.00927 µM | 10 to 100 nM |  | 
2 | C=CC(=O)N1CC[C@@H](Nc2nc(Nc3ccc(N4CCN(C)CC4)cc3)nc3[nH]cc(C(=O)c4ccc(F)cc4)c23)C1 [Example 26] | 0.00352 µM | 0.15 µM |  |  |  |  |  | 0.00631 µM |  | 0.52 µM | 
3 | CN1CCN(c2ccc(Nc3nc(NC45CC6CC(CC(O)(C6)C4)C5)c4c(C(=O)c5ccc(F)cc5)c[nH]c4n3)cc2)CC1 [Example 70] | 0.00655 µM | 0.054 µM |  |  |  |  |  |  | 10 to 100 nM |  | 
4 | O=C(c1cccc(F)c1)c1c[nH]c2nc(Nc3ccc(N4CCOCC4)cc3)nc(N[C@H]3CC[C@H](CO)CC3)c12 [Example 92] |  |  |  | < 0.1 µM | 0.1 to 1 µM | < 0.1 µM |  |  |  | 0.07 µM | 
5 | CN1CCN(c2ccc(Nc3nc(NC4CCOCC4)c4c(C(=O)c5ccc(F)cc5)c[nH]c4n3)cc2)CC1 [Example 40] |  |  | < 0.1 µM | 0.1 to 1 µM | 0.1 to 1 µM |  | 0.1 to 1 µM |  |  | 0.23 µM | 
6 | CN1CCN(c2ccc(Nc3nc(NC4CCCCC4O)c4c(C(=O)c5ccc(F)cc5)c[nH]c4n3)cc2)CC1 (centres unmarked) [Example 43] |  |  |  | 0.1 to 1 µM | 0.1 to 1 µM | 0.1 to 1 µM |  |  | 100 to 600 nM |  | 
7 | CN1CCN(c2ccc(Nc3nc(NC4CC5(COC5)C4)c4c(C(=O)c5ccc(F)cc5)c[nH]c4n3)cc2)CC1 [Example 18] | 0.0282 µM | 0.15 µM |  |  |  |  |  |  | 10 to 100 nM |  | 
8 | CN1CCN(c2ccc(Nc3nc(NC4CCN(S(C)(=O)=O)CC4)c4c(C(=O)c5ccc(F)cc5)c[nH]c4n3)cc2)CC1 [Example 64] | 0.0243 µM | 0.2 µM |  |  |  |  |  | 0.0936 µM | 100 to 600 nM |  | 

More lines, main results first:

Row | IC50 [1] | IC50 [2] | IC50 [3] | IC50 [5] | IC50 [6] | IC50 [7] | IC50 [8] | IC50 [9] | IC50 [10] | IC50 ([8]; Table 5 numeric) | SMILES | IC50 [4]
9 | 0.00444 µM | 0.035 µM | < 0.1 µM | 0.1 to 1 µM | < 0.1 µM | 0.1 to 1 µM | 1 to 2 µM |  |  |  | CN1CCN(c2ccc(Nc3nc(N[C@H]4CC[C@H](CO)CC4)c4c(C(=O)c5ccc(F)cc5)c[nH]c4n3)cc2)CC1 [Example 42] | 1 to 2 µM
10 |  |  |  | < 0.1 µM | 0.1 to 1 µM | 0.1 to 1 µM | 0.1 to 1 µM |  |  |  | O=C(c1ccc(F)cc1)c1c[nH]c2nc(Nc3ccc(N4CCOCC4)cc3)nc(N[C@H]3CC[C@H](CO)CC3)c12 [Example 79] | < 0.1 µM
11 | 0.00412 µM | 0.16 µM | < 0.1 µM |  | < 0.1 µM | < 0.1 µM | 0.1 to 1 µM | 0.0182 µM | < 10 nM |  | Cn1cc(Nc2nc(N[C@H]3CC[C@@H](CO)CC3)c3c(C(=O)c4ccc(F)cc4)c[nH]c3n2)cn1 [Example 114] | 0.1 to 1 µM
12 | 0.003 µM | 0.12 µM |  | 0.1 to 1 µM | < 0.1 µM | 0.1 to 1 µM | 0.1 to 1 µM | 0.00727 µM |  |  | C=CC(=O)N1CC[C@@H](Nc2nc(Nc3cnn(C)c3)nc3[nH]cc(C(=O)c4ccc(F)cc4)c23)C1 [Example 109] | 
13 |  |  | 0.1 to 1 µM | < 0.1 µM | < 0.1 µM |  | 0.1 to 1 µM |  | 10 to 100 nM |  | Cn1cc(Nc2nc(N[C@H]3CC[C@H](CO)CC3)c3c(C(=O)c4ccc(F)cc4)c[nH]c3n2)cn1 [Example 110] | < 0.1 µM
14 | 0.00246 µM | 0.56 µM | 0.1 to 1 µM |  | 0.1 to 1 µM | 0.1 to 1 µM | 1 to 2 µM | 0.00816 µM | < 10 nM |  | CN1CCC(n2cc(Nc3nc(N[C@H]4CC[C@@H](CO)CC4)c4c(C(=O)c5ccc(F)cc5)c[nH]c4n3)cn2)CC1 [Example 115] | 1 to 2 µM
15 |  |  |  | 0.1 to 1 µM | < 0.1 µM | < 0.1 µM |  |  |  |  | C=CC(=O)N1CC[C@H](Nc2nc(Nc3ccc(N4CCN(C)CC4)cc3)nc3[nH]cc(C(=O)c4ccccc4F)c23)C1 [Example 46] | 
16 |  |  | 0.1 to 1 µM |  | < 0.1 µM | 0.1 to 1 µM | 0.1 to 1 µM |  | 10 to 100 nM |  | CN1CCN(c2ccc(Nc3nc(N[C@@H]4C=C[C@H](CO)C4)c4c(C(=O)c5ccc(F)cc5)c[nH]c4n3)cc2)CC1 [Example 19] | 1 to 2 µM
17 | 0.00272 µM | 0.16 µM | < 0.1 µM |  | < 0.1 µM | < 0.1 µM |  | 0.0114 µM | < 10 nM |  | CCN1CCN(c2ccc(Nc3nc(N[C@H]4CC[C@@H](CO)CC4)c4c(C(=O)c5ccc(F)cc5)c[nH]c4n3)cc2)CC1 [Example 104] | 0.1 to 1 µM
